Patent US20210079035A1, “COMPOUNDS FOR TREATING NEURODEGENERATIVE DISORDERS” (ETHNODYNE, priority 2017, published 2021)
“Also recorded” adds a separate entry of the source.

Experiments:
[1] = system: primary motor neuron culture from rat spinal cord; experiment: Motor neuron survival after glutamate exposure (in vitro ALS model), MAP-2 immunostaining; type: cell-based; details: for protective effect on motor neurons: 1 pM to 10 μM
Description: The aim of this study was to study the effect of CR777B on primary motor neuron culture from rat spinal cord (SC) injured by glutamate exposure (a well validated in vitro ALS model and model of motor neuron diseases).
Rat SC motor neurons were cultured as described by Martinou et al., Neuron. […] Briefly, pregnant female rats (Wistar, Janvier labs) of 14 days gestation were killed by cervical dislocation. […] The medium was changed every day.
For each condition, 6 wells were assessed, 30 pictures per well were taken using ImageXpress (Molecular Devices) with 20× magnification, to assess motor neuron survival (MAP-2). Analysis of picture was done using Custom Module Editor (Molecular Devices). Results were expressed in terms of mean survival neuron, labeled for MAP-2. Data were expressed in percentage of control conditions (no intoxication, no glutamate=100%) in order to express the glutamate injury. All values were expressed as mean+/−SEM (s.e.mean) of the culture (n=6 wells per condition per culture). Graphs and statistical analyses are made on the different conditions (ANOVA followed by PLSD Fisher's test when allowed, using Statview software version 5.0).

[2] = system: human HCT-116 colorectal carcinoma; experiment: Cell growth inhibition by MTS assay (cytotoxicity); type: cell-based; details: for IC50: Homo sapiens, HCT-116, MTS assay, 72 h of incubation, triplicate, read-out: IC50 mM HCT116
Description: (§1) Human MRC-5 cell line derived from normal lung tissue and human HCT-116 colorectal carcinoma were obtained from the American Type Culture Collection (ATCC, Rockville, Md.). Cell lines were cultured according to the supplier's instructions. Human HCT-116 cells were grown in Gibco McCoy's 5A supplemented with 10% fetal calf serum (FCS) and 1% glutamine. Human MRC-5 cells were grown in DMEM supplemented with 10% fetal calf serum (FCS) and 1% glutamine.
(§2) Cells were counted using a Vi-cell XR (Beckman Coulter) and their viability assessed by 0.25% trypan blue dye exclusion. They were tested for the presence of mycoplasma before experiments with the Mycoplasma PCR Detection Kit (Applied Biological Materials Inc., Canada) in accordance with the manufacturer instructions and only mycoplasma-free cells were used for further investigations.
(§3) Cell lines were maintained at 37° C. in a humidified atmosphere containing 5% CO2. Cell growth inhibition was determined by an MTS assay according to the manufacturer's instructions (Promega, Madison, Wis., USA). […] After 24 h of culture, the cells were treated with the compound CR777B of example 1 or with the withaferine at 8 different final concentrations. Each concentration was obtained from serial dilutions in culture medium starting from the stock solution. Control cells were treated with the vehicle. Experiments were performed in triplicate.
(§4) After 72 h of incubation, 20 μL of CellTiter 96® AQueous One Solution Reagent was added for 2 h before recording absorbance at 490 nm with a spectrophotometric plate reader. The dose-response curves were plotted with Graph Prism software and the IC50 values were calculated using the Graph Prism software from polynomial curves (four or five-parameter logistic equations).

[3] = system: Human MRC-5 cell line derived from normal lung tissue; experiment: Cell growth inhibition by MTS assay (cytotoxicity); type: cell-based; details: MRC5, 72 h of incubation, triplicate
Description: as §1, §2, §3, §4

[4] = system: primary cocultures of central neurons and oligodendrocytes; experiment: In vitro myelination (MS) model, A2B5 and MAG immunostaining; type: cell-based, rat; details: for conclusion: effect on OPC and OL: 1 pmol/L to 10 μmol/L
Description: A reproducible in vitro myelination model based on primary cocultures of central neurons and oligodendrocytes culturing in 96-well plate is used and adapted to high throughput screening.
Neurons/oligodendrocytes were cultured as previously described by Charles et al., 2000. PNAS 97 7585-7590.
Briefly, pregnant Wistar female rats of 17 days gestation were killed by cervical dislocation (Janvier Labs, France) and the foetuses removed from the uterus. The forebrains were removed and placed in ice-cold medium of Leibovitz (L15; Pan Biotech, Germany) containing 2% of Penicillin-Streptomycin (Batch 1451013, PanBiotech) and 1% of bovine serum albumin (BSA) (Batch K180713, Pan Biotech). Cortexes were dissociated by trypsinisation for 20 min at 37° C., with Trypsin EDTA 1× (Batch 7310713, PanBiotech). The reaction was stopped by the addition of Dulbecco's modified Eagle's medium (DMEM) (Batch 9710913, PanBiotech) containing DNAase I grade II at 0.1 mg/mL (Batch H131108, PanBiotech) and 10% of foetal calf serum (Batch 41Q7218K, Invitrogen, France). Cells were then mechanically dissociated by 3 passages through a 10 mL pipette. Cells were centrifuged at 180×g for 10 min at 4° C. temperature on a layer of BSA (3.5%) in L15 medium. The supernatant was discarded and cells of the pellet were re-suspended in DMEM containing 10% of FCS. […] The supernatant was discarded and cells of pellet were re-suspended in a culture medium consisting of Neurobasal (Batch 1625353, Invitrogen) supplemented with 2% of B27 (Batch 1618508, Invitrogen), 2 mM of L-glutamine (Batch 6620314, PanBiotech), 2% of PS solution, 1% of foetal calf serum (FCS) and 10 ng/mL of platelet-derived growth factor (PDGF-AA) (Batch H131205, PanBiotech).
The plates were maintained at 37° C. in a humidified incubator, in an atmosphere of air (95%)-CO2 (5%). Half of the medium was changed every 2 days with fresh medium in presence or absence of compound.
The cells were then permeabilized and non-specific sites were blocked with a solution of phosphate buffered saline (Batch 3010914, PanBiotech) containing 0.1% of saponin (Batch BCBJ8417V, Sigma) and 1% FCS for 15 min at room temperature.
On day 12, cells were incubated with Monoclonal Anti-A2B5 conjugated Alexa Fluor® 488 produced in mouse (Batch 2281669, Millipore, France) at dilution of 1/200 in PBS containing 1% FCS, 0.1% saponin, and with anti-MAP-2 antibody produced in chicken (Batch GR180541-3, AbCam; United Kingdom) at dilution of 1/1000 in PBS containing 1% FCS, 0.1% saponin for 2 h at room temperature.
On day 18, cells were incubated with Monoclonal Anti-MAG antibody produced in mouse (Batch 2301638, Millipore) at dilution of 1/400 in PBS containing 1% FCS, 0.1% saponin, and with anti-MAP-2 antibody produced in chicken at dilution of 1/1000 in PBS containing 1% FCS, 0.1% saponin for 2 h at room temperature.
The immunolabeled cultures were automatically examined with ImageXpress (Molecular Devices) equipped with a LED at ×20 magnification. For each condition, 30 pictures (representing ˜80% of the total surface of the well) per well were taken. All images were taken with the same conditions. Number of A2B5 positive cells and number of MAG positive cells were automatically analyzed by using Custom module editor (Molecular Devices). Data were expressed in percentage of control conditions (no plant extract=100%). All values were expressed as mean+/−SEM (s.e.mean) of the 6 wells. Graphs and statistical analyses are made on the different conditions (ANOVA followed by Dunnett's test when allowed, using GraphPad Prism software).

[5] = system: primary rat cortical neurons; experiment: Neuron survival and neurite network after glutamate injury, MAP-2 immunostaining
[6] = system: primary rat dopaminergic neurons (TH positive neurons); experiment: Neuroprotection after MPP+ exposure, TH immunostaining; type: cell-based; details: for neuroprotective effect on TH positive neurons: 1 pmol/L to 10 μmol/L
Description: This study investigated the neuroprotective effect of the Compound CR777B of example 1 on rat primary mesencephalic cultures following exposure to 1-methyl-4-phenyl pyridinium (MPP^+).
Rat dopaminergic neurons were cultured as described by Visanji et al., 2008 FASEB J. 2008; 22(7):2488-97. Briefly, the midbrains obtained from 15-day old rat embryos (Janvier Labs, France) were dissected under a microscope. The embryonic midbrains were removed and placed in ice-cold medium of Leibovitz (L15, Batch 4290114, Pan Biotech, Germany) containing 2% of Penicillin-Streptomycin (PS, Batch 1451013, Pan Biotech) and 1% of bovine serum albumin (BSA, Batch K030913, Pan Biotech). The ventral portion of the mesencephalic flexure, a region of the developing brain rich in dopaminergic neurons, was used for the cell preparations.
The midbrains were dissociated by trypsinisation for 20 min at 37° C. […] The cells were seeded in supplemented neurobasal medium at a density of 40 000 cells/well in 96 well-plates pre-coated with poly-L-lysine (Batch 3102256, Corning Biocoat) and maintained in a humidified incubator at 37° C. in 5% CO2/95% air atmosphere. Half of the medium was changed every 2 days with fresh medium.
On day 6 of culture, the medium was removed and fresh medium was added, without or with MPP+ at 4 μM diluted in control medium and let for 48 h. In parallel, compound CR777B and withaferin A were solved in culture medium and then pre-incubated with mesencephalic neurons 1 hour before the MPP+ application (48 h).
48 hours after intoxication, the cell culture supernatant was taken off and the dopaminergic neurons were fixed by a solution of 4% paraformaldehyde in PBS, pH=7.3 for 20 min at room temperature.
After permeabilization with 0.1% of saponin (Merck, France), cells were incubated for 2 hours with monoclonal Anti-Tyrosine Hydroxylase (TH) antibody produced in mouse at dilution of 1/10000 in PBS containing 1% FCS, 0.1% saponin, for 2 h at room temperature.
The immunolabeled cultures were automatically examined with ImageXpress (Molecular Devices, United Kingdom) equipped with a LED at ×10 magnification. […] All images were taken with the same conditions. Analysis were automatically performed by using Custom Module Editor (Molecular Devices).
Data were expressed in percentage of control conditions (no injury, no compound=100%). All values were expressed as mean+/−SEM (standard error mean) of the 6 wells with statistical analyses on the different conditions (ANOVA followed by Dunnett's test when allowed, using GraphPad Prism software).

[7] = added 1 h before glutamate (5 μM, 20 min)
[8] = added 1 h before glutamate (40 μM, 20 min) and let for 48 h
[9] = added 1 h before MPP+ (4 μM) and let for 48 h
[10] = after 12 or 18 days of incubation

For `CC1=C(CO)C(=O)O[C@@H]([C@@H](C)[C@H]2CCC3C4C[C@H]5O[C@]56[C@@H](O)C(SC[C@H](NC(=O)CC[C@@H](N)C(=O)O)C(=O)NCC(=O)O)CC(=O)[C@]6(C)C4CC[C@@]32C)C1` (some centres unmarked) [CR777B], the “MN protective effect at the 2 highest doses” value ([1]; 2 highest doses (1 and 10 μM), glutamate 5 μM, 20 min) was “inactive”, the “concentration of maximal MN protective effect (bell shape curve)” value ([1]; added 1 h before glutamate (5 μM, 20 min), then 48 h) was 100 nM and the “protective effect on motor neurons” value [1, 7] was “significant protective effect at all doses (except at the 2 highest doses)”. The IC50 [2] was 0.00266 mM, the “toxicity on the cells compared with withaferin” value ([2]; whatever the cell line tested (HCT116 and MRC5)) was “less toxic than the compound withaferin” and the IC50 [3] was 0.0036 mM. For the same compound, the “conclusion: effect on OPC and OL” value [4] was “significantly increase the number of OPC and OL”, the “OPC number (A2B5 positive cells)” value ([4]; after 12 days of incubation) was “significant increase of OPC” and the “concentration of maximal effect on OPC number (bell shape curve)” value ([4]; after 12 days of incubation) was 100 pM. For the same compound, the “total number of OPCs at the highest doses” value ([4]; after 12 days of incubation, highest doses) was “decrease of the total number of OPCs”, the “myelination of neurons by OL (MAG expression)” value ([4]; after 18 days of treatment) was “significantly improved the myelination of neurons by OL” and the “number of MAG positive cells (OL)” value ([4]; after 18 days of treatment) was “increase the number of MAG positive cells”. The “concentration with toxicity on neurite network” value [5, 8] was 10 µM, the “concentrations with toxic effect on TH positive neurons” value [6, 9] was 10 µM and the “neuroprotective effect on TH positive neurons” value (shortened to “neuroprotective effect”) [6, 9] was “significant protective effect (neuron survival and preservation of neurite network) at all doses (except at the highest dose)”.

`N[C@@H](CCC(=O)O)C(=O)O` [Glutamate, glutamate] was tested, and the motor neuron death ([1]; glutamate 5 μM for 20 min) was over 30% and the “neuronal death and neurite network loss” value ([5]; glutamate 40 μM, 20 min) was “significant neuronal death and neurite network loss”.

With `CC1=C(CO)C(=O)O[C@@H]([C@@H](C)[C@H]2CC[C@H]3[C@@H]4C[C@H]5O[C@]56[C@@H](O)C=CC(=O)[C@]6(C)[C@H]4CC[C@]23C)C1` [Withaferin A, (4β,5β,6β,22R)-4,27-Dihydroxy-5,6:22,26-diepoxyergosta-2,24-diene-1,26-dione] the “toxicity for MN” value ([1]; MN injured by glutamate (5 μM, 20 min)) was “toxic for MN injured by glutamate”, the “protective effect on motor neurons” value [1, 7] was “did not show a protective effect; also recorded: did not show any neuroprotective effect” and the IC50 [2] was 0.00037 mM. The IC50 [3] was 0.00025 mM, the “conclusion: effect on OPC and OL” value [4] was “toxic for OPC and OL at all doses” and the “number of OL” value [4, 10] was “significant decrease of the number of OL”. For the same compound, the “toxicity / OPC proliferation” value [4, 10] was “large toxic and/or inhibition of the OPC proliferation”, the “protection of neurons from death” value [5, 8] was “did not protect neurons from death” and the “toxicity for TH positive neurons” value ([6]; MPP+ 4 μM, 48 h, highest doses) was “toxic for TH positive neurons at the highest doses”. For the same compound, the “neuroprotective effect” value [6, 9] was “did not show any neuroprotective effect” and the “neuroprotective effect” value ([6]; added 1 h before MPP+ (4 μM) and let for 48 h, listed as withaferin A) was “did not show any effect”.

For `C[n+]1ccc(-c2ccccc2)cc1` [MPP+, 1-methyl-4-phenyl pyridinium], the “TH positive neuron cell death” value ([6]; MPP+ 4 μM, 48 h) was over 35%.
